# Experimental data published in US5068233A, “Synergistic combination of azelastine and theophylline or azelastine and α-mimetics” (Asta Pharma Aktiengesellschaft, priority 1987, dated 1991).
# Where a name gives a salt, the structure may show the parent alone.
# Test system: isolated guinea pig ileum (histamine spasm)
# Experiment: histamine spasm test in isolated guinea pig ileum (Magnus), % inhibition of histamine spasm
# Parameters: antihistaminic activity (mean value), starting value / increase of antihistaminic activity (mean value): concentration or dose not given beside the values
# Protocol: These trials were conducted in association with the histamine spasm test in isolated guinea pig ileum. Here, for example, the azelastine dosage (hydrochloride) is maintained constant and the dosage of theophylline or β-mimetic (for example reproterol) is changed and in each case intestinal spasm inhibition is determined as a % of uninhibited histamine spasm (Method of determining synergism according to Magnus).
# Guinea pigs of both sexes having a mean weight of 400-600 g are stunned by a blow on the neck and exsanguinated. The lower part of the small intestine above the bottom 10 cm before the transition to the large intestine is dissected, flushed with cold Tyrode's solution and incubated in a refrigerator for 1 hour. 3-4 cm long sections are then cut and suspended in the immersion baths (Tyrode's solution^1) 37° C., carbogen gassing^2) under isotonic conditions, a tension of 2 g being applied. Following an adjustment time of 30 minutes the contraction in response to a standard spasmogen concentration of histamine (2×10^-7 mol/liter) is determined. […] The effects of the individual components and their combination are compared with one another.
# 1 Tyrode's solution: standardized, glucose-containing nutrient solution that has the same osmotic pressure as blood
# 2 Carbogen: gaseous mixture of 95% oxygen and 5% carbon dioxide.
smiles,measurement,setting,value
CN1CCCC(n2nc(Cc3ccc(Cl)cc3)c3ccccc3c2=O)CC1 (centres unmarked) [Azelastine.HCl],% inhibition (histamine 2 × 10^-10 mol/ml),"Table 1, Azelastine.HCl 0.001 μg/ml alone, group ****, N = 8",46.3 ± 34.6%
same,% inhibition (histamine 2 × 10^-10 mol/ml),"Table 1, Azelastine.HCl 0.001 μg/ml alone, group ***, N = 8",9.4 ± 12.4%
same,% inhibition (histamine 2 × 10^-10 mol/ml),"Table 1, Azelastine.HCl 0.001 μg/ml alone, group **, N = 4",49.3 ± 1.9%
same,% inhibition (histamine 2 × 10^-10 mol/ml),"Table 1, Azelastine.HCl 0.001 μg/ml alone, group *, N = 8",38.9 ± 19.9%
same,% inhibition (histamine 2 × 10^-10 mol/ml),"Table 2, Azelastine.HCl 0.001 μg/ml alone, group ***, N = 8",45.9 ± 21.1%
same,% inhibition (histamine 2 × 10^-10 mol/ml),"Table 2, Azelastine.HCl 0.001 μg/ml alone, group **, N = 8",26.6 ± 15.1%
same,% inhibition (histamine 2 × 10^-10 mol/ml),"Table 2, Azelastine.HCl 0.001 μg/ml alone, group *, N = 8",35.1 ± 25.7%
Cn1c(=O)c2c(ncn2CCCNCC(O)c2cc(O)cc(O)c2)n(C)c1=O (centres unmarked) [Reproterol.HCl],% inhibition (histamine 2 × 10^-10 mol/ml),"Table 2, Reproterol.HCl 0.02 μg/ml alone, group *, N = 8",14.5 ± 16.6%
same,% inhibition (histamine 2 × 10^-10 mol/ml),"Table 2, Reproterol.HCl 0.04 μg/ml alone, group **, N = 8",14.5 ± 18.1%
same,% inhibition (histamine 2 × 10^-10 mol/ml),"Table 2, Reproterol.HCl 0.06 μg/ml alone, group ***, N = 8",48.5 ± 21.3%
Cn1c(=O)c2[nH]cnc2n(C)c1=O [Theophylline],% inhibition (histamine 2 × 10^-10 mol/ml),"Table 1, Theophylline 10 μg/ml alone, group *, N = 8",9.0 ± 12.8%
same,% inhibition (histamine 2 × 10^-10 mol/ml),"Table 1, Theophylline 20 μg/ml alone, group **, N = 4",25.0 ± 15.1%
same,% inhibition (histamine 2 × 10^-10 mol/ml),"Table 1, Theophylline 40 μg/ml alone, group ***, N = 8",39.6 ± 26.9%
same,% inhibition (histamine 2 × 10^-10 mol/ml),"Table 1, Theophylline 60 μg/ml alone, group ****, N = 8",20.6 ± 15.5%
same,"antihistaminic activity (mean value), starting value","theophylline, mean value before addition of azelastine",24%
same,increase of antihistaminic activity (mean value),"theophylline, upon addition of azelastine",38%
CN1CCCC(n2nc(Cc3ccc(Cl)cc3)c3ccccc3c2=O)CC1 (centres unmarked) [azelastine],increase of antihistaminic activity (mean value),"azelastine activity increased in the combination, partner not given",26%
same,"antihistaminic activity (mean value), starting value","azelastine, mean value before increase",36%
"Cn1c(=O)c2c(ncn2CCCNCC(O)c2cc(O)cc(O)c2)n(C)c1=O (stereo not drawn) [reproterol, 7-{3[(β,3,5-trihydroxyphenethyl)-amino]propyl}-theophylline]","antihistaminic activity (mean value), starting value","reproterol, mean value before addition of azelastine",26%
same,increase of antihistaminic activity (mean value),"reproterol, on addition of azelastine",38%
